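How tested: cells in 96-well plates exposed to compound for 48 hours at five concentrations. TGI denotes the concentration required for complete inhibition of growth.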
Key:
Assay in all cases: NCI anticancer screen, dose series, 48 h
NCI-H226 lung = system: NCI-H226 lung
COLO 205 colon = system: COLO 205 colon
MDA-N = system: MDA-N
CAKI-1 renal = system: CAKI-1 renal
RXF 393 renal = system: RXF 393 renal
HS 578T breast = system: HS 578T breast
M14 melanoma = system: M14 melanoma
SK-MEL-28 melanoma = system: SK-MEL-28 melanoma
U251 CNS = system: U251 CNS
HCT-15 colon = system: HCT-15 colon
SR leukemia = system: SR leukemia
SN12C renal = system: SN12C renal
MCF7 breast = system: MCF7 breast
MALME-3M melanoma = system: MALME-3M melanoma
NCI-H23 lung = system: NCI-H23 lung
T-47D breast = system: T-47D breast
CCRF-CEM leukemia = system: CCRF-CEM leukemia
MDA-MB-231 breast = system: MDA-MB-231 breast
HOP-62 NSCLC = system: HOP-62 NSCLC
SF-539 CNS = system: SF-539 CNS
SF-295 CNS = system: SF-295 CNS
OVCAR-4 ovarian = system: OVCAR-4 ovarian
ACHN renal = system: ACHN renal
PC-3 prostate = system: PC-3 prostate
SNB-75 CNS = system: SNB-75 CNS
NCI-H522 lung = system: NCI-H522 lung
LOX IMVI melanoma = system: LOX IMVI melanoma
KM12 colon = system: KM12 colon
NCI-H460 lung = system: NCI-H460 lung
OVCAR-3 ovarian = system: OVCAR-3 ovarian
MOLT-4 leukemia = system: MOLT-4 leukemia
UACC-62 melanoma = system: UACC-62 melanoma
HT29 colon = system: HT29 colon
K-562 leukemia = system: K-562 leukemia
HOP-92 NSCLC = system: HOP-92 NSCLC
RPMI-8226 leukemia = system: RPMI-8226 leukemia
SW-620 colon = system: SW-620 colon
786-0 renal = system: 786-0 renal
SNB-19 CNS = system: SNB-19 CNS
EKVX NSCLC = system: EKVX NSCLC
A498 renal = system: A498 renal
UACC-257 melanoma = system: UACC-257 melanoma
SF-268 CNS = system: SF-268 CNS
SK-MEL-2 melanoma = system: SK-MEL-2 melanoma
TK-10 renal = system: TK-10 renal
IGROV1 ovarian = system: IGROV1 ovarian
HCC-2998 colon = system: HCC-2998 colon
DU-145 prostate = system: DU-145 prostate
HL-60(TB) leukemia = system: HL-60(TB) leukemia
NCI/ADR-RES ovarian = system: NCI/ADR-RES ovarian
MDA-MB-435 = system: MDA-MB-435
OVCAR-8 ovarian = system: OVCAR-8 ovarian
SK-MEL-5 melanoma = system: SK-MEL-5 melanoma
UO-31 renal = system: UO-31 renal
BT-549 breast = system: BT-549 breast
OVCAR-5 ovarian = system: OVCAR-5 ovarian
A549 NSCLC = system: A549 NSCLC
SK-OV-3 ovarian = system: SK-OV-3 ovarian
HCT-116 colon = system: HCT-116 colon

Cn1c2c3c(F)c(F)ccc3nc-2cc2ccccc21
TGI (NCI-H226 lung): 13.4 µM | TGI (COLO 205 colon): 10.7 µM | TGI (MDA-N): 15 µM | TGI (CAKI-1 renal): 12.2 µM | TGI (RXF 393 renal): 26.9 µM | TGI (HS 578T breast): > 100 µM | TGI (M14 melanoma): 5.41 µM | TGI (SK-MEL-28 melanoma): 18.3 µM | TGI (U251 CNS): 12.9 µM | TGI (HCT-15 colon): 10.7 µM | TGI (SR leukemia): > 100 µM | TGI (SN12C renal): 6.23 µM | TGI (MCF7 breast): 30 µM | TGI (MALME-3M melanoma): 14.1 µM | TGI (NCI-H23 lung): 3.18 µM | TGI (T-47D breast): 4.39 µM | TGI (CCRF-CEM leukemia): 28 µM | TGI (MDA-MB-231 breast): 20.8 µM | TGI (HOP-62 NSCLC): 6.92 µM | TGI (SF-539 CNS): 13.5 µM | TGI (SF-295 CNS): 5.69 µM | TGI (OVCAR-4 ovarian): 22.9 µM | TGI (ACHN renal): 4.68 µM | TGI (PC-3 prostate): 19.4 µM | TGI (SNB-75 CNS): 5.71 µM | TGI (NCI-H522 lung): 14.3 µM | TGI (LOX IMVI melanoma): 5.23 µM | TGI (KM12 colon): 4.76 µM | TGI (NCI-H460 lung): 12.6 µM | TGI (OVCAR-3 ovarian): 13.6 µM | TGI (MOLT-4 leukemia): > 100 µM | TGI (UACC-62 melanoma): 15.8 µM | TGI (HT29 colon): 12.1 µM | TGI (K-562 leukemia): > 100 µM | TGI (HOP-92 NSCLC): 49.1 µM | TGI (RPMI-8226 leukemia): 11.5 µM | TGI (SW-620 colon): 12.4 µM | TGI (786-0 renal): 11.8 µM | TGI (SNB-19 CNS): 18.2 µM | TGI (EKVX NSCLC): 26.8 µM | TGI (A498 renal): 2.89 µM | TGI (UACC-257 melanoma): 19.7 µM | TGI (SF-268 CNS): 25.4 µM | TGI (SK-MEL-2 melanoma): 14.1 µM | TGI (TK-10 renal): 3.91 µM | TGI (IGROV1 ovarian): 15.9 µM | TGI (HCC-2998 colon): 3.63 µM | TGI (DU-145 prostate): 10.2 µM | TGI (HL-60(TB) leukemia): 56.6 µM | TGI (NCI/ADR-RES ovarian): 7.68 µM | TGI (MDA-MB-435): 15.7 µM | TGI (OVCAR-8 ovarian): 16.3 µM | TGI (SK-MEL-5 melanoma): 12.8 µM | TGI (UO-31 renal): 7.52 µM | TGI (BT-549 breast): 20 µM | TGI (OVCAR-5 ovarian): 9.07 µM | TGI (A549 NSCLC): 15.4 µM | TGI (SK-OV-3 ovarian): 21.1 µM

CCN(CC)COC(=S)S
TGI (NCI-H226 lung): > 100 µM | TGI (COLO 205 colon): > 100 µM | TGI (MDA-N): > 100 µM | TGI (CAKI-1 renal): > 100 µM | TGI (RXF 393 renal): > 56.1 µM | TGI (HS 578T breast): > 100 µM | TGI (M14 melanoma): > 100 µM | TGI (SK-MEL-28 melanoma): > 100 µM | TGI (U251 CNS): > 100 µM | TGI (HCT-15 colon): > 100 µM | TGI (SR leukemia): 25.9 µM | TGI (SN12C renal): > 100 µM | TGI (MCF7 breast): > 100 µM | TGI (MALME-3M melanoma): > 100 µM | TGI (NCI-H23 lung): > 100 µM | TGI (T-47D breast): > 100 µM | TGI (MDA-MB-231 breast): > 100 µM | TGI (HOP-62 NSCLC): > 100 µM | TGI (SF-539 CNS): > 100 µM | TGI (SF-295 CNS): > 100 µM | TGI (OVCAR-4 ovarian): > 100 µM | TGI (ACHN renal): > 100 µM | TGI (PC-3 prostate): > 100 µM | TGI (SNB-75 CNS): > 90.2 µM | TGI (NCI-H522 lung): > 94.7 µM | TGI (HCT-116 colon): > 100 µM | TGI (LOX IMVI melanoma): > 100 µM | TGI (KM12 colon): > 100 µM | TGI (NCI-H460 lung): > 100 µM | TGI (MOLT-4 leukemia): 69 µM | TGI (UACC-62 melanoma): > 100 µM | TGI (HT29 colon): > 100 µM | TGI (K-562 leukemia): > 100 µM | TGI (HOP-92 NSCLC): > 100 µM | TGI (SW-620 colon): 78.1 µM | TGI (786-0 renal): > 100 µM | TGI (SNB-19 CNS): > 100 µM | TGI (EKVX NSCLC): > 100 µM | TGI (A498 renal): > 100 µM | TGI (UACC-257 melanoma): > 76.3 µM | TGI (SF-268 CNS): > 100 µM | TGI (SK-MEL-2 melanoma): 57 µM | TGI (TK-10 renal): > 100 µM | TGI (IGROV1 ovarian): > 100 µM | TGI (HCC-2998 colon): > 78.1 µM | TGI (DU-145 prostate): > 100 µM | TGI (NCI/ADR-RES ovarian): > 100 µM | TGI (MDA-MB-435): > 100 µM | TGI (OVCAR-8 ovarian): > 100 µM | TGI (SK-MEL-5 melanoma): > 100 µM | TGI (UO-31 renal): > 100 µM | TGI (BT-549 breast): > 100 µM | TGI (OVCAR-5 ovarian): > 100 µM | TGI (A549 NSCLC): > 100 µM | TGI (SK-OV-3 ovarian): > 100 µM

Reference: PubChem BioAssay (NCI)
